Read-outs that look alike come from different tables or passages of the source. Square brackets hold non-standard residues; d marks the D form. Peptide text beside a SMILES is read from it. NMeThr(4R-Me,4-(CH2)6NHAc) = CN[C@H](C(=O)O)[C@H](O)[C@H](C)CCCCCCNC(C)=O; NMeL = CN[C@@H](CC(C)C)C(=O)O; NMeV = CN[C@H](C(=O)O)C(C)C; dNMeA = CN[C@H](C)C(=O)O; Abu = CC[C@H](N)C(=O)O
What was measured:
recombinant Cyp D (PPIF) = target: T1, recombinant Cyp D (PPIF) (Homo sapiens, UniProt P30405); experiment: Cyclophilin isomerase assay, Cyp D; assay type: biochemical
T1 construct: purchased Cedarlane Laboratories CLENZ385
T1 sequence (P30405 30-207): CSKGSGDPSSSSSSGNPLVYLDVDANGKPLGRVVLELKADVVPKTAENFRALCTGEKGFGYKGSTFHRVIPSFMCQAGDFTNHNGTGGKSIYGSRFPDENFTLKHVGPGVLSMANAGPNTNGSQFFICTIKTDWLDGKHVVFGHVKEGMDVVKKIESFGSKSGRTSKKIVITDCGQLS
Method: (§1) Cyclophilin isomerase activity was measured with an assay described by [Kofron et al. (1991)] with adaptations to 96-well plates. In this assay cyclophilins catalyze cis-to-trans isomerization of a proline peptide bond in a nitroanalide-coupled peptide substrate followed by cleavage of the trans-conformer peptide by α-chymotrypsin, release of the p-nitroaniline chromogen, and quantitation of p-nitroaniline by absorbance at 410 nm. All solutions were pre-equilibrated, and all assays were conducted at 4°C. Plates were preloaded with 5 µl peptide solution consisting of N-succinyl-alanine-alanine-proline-phenylalanine-p-nitroanilide (S7388; Sigma-Aldrich) and 400 mM lithium chloride (310468; Sigma-Aldrich) in anhydrous trifluoroethanol (T63002; Sigma-Aldrich). […] Absorbance measurements with a BMG Polarstar Galaxy plate reader were begun immediately and made at 6-second intervals for 6 minutes. Reaction curves were represented by increases in optical density 410 nm as a function of reaction time. For Ki determinations, initial reaction velocities were obtained from the reaction curves and plotted relative to substrate concentration, and the curves were fitted to the enzyme competitive inhibition model (GraphPad Prism) to derive Ki, maximum velocity (Vmax), and Michaelis constant values. […]

[1] = target: T2, recombinant cyclophilin G (PPIG) (Homo sapiens, UniProt Q13427); experiment: Cyclophilin isomerase assay, cyclophilin G; assay type: biochemical
T2 construct: purchased Cedarlane Laboratories CLENZ463
T2 sequence (Q13427 whole entry): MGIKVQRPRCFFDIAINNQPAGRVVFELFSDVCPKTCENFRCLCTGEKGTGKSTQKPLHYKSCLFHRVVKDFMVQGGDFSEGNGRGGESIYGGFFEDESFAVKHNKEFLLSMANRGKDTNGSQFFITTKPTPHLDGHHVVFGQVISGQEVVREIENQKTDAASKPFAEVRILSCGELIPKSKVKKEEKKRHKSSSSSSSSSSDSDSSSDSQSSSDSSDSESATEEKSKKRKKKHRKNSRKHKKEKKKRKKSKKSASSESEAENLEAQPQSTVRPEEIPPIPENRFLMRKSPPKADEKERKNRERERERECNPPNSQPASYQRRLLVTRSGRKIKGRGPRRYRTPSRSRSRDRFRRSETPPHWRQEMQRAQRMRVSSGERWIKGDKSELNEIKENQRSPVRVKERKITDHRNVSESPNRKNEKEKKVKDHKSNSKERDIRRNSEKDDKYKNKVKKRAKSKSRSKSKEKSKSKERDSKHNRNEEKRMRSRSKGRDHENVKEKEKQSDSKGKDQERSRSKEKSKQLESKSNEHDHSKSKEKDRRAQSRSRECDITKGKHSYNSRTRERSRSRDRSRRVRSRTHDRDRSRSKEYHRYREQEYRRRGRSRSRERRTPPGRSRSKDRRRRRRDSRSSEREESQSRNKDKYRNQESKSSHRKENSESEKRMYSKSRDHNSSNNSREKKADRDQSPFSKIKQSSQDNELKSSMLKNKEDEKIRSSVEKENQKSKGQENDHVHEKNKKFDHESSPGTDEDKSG
Method: as §1

[2] = target: cyclophilins A, B, D, and G; experiment: Cyclophilin isomerase assay, all isoforms tested; assay type: biochemical
Method: Cyclophilin isomerase activity was measured with an assay described by [Kofron et al. (1991)] with adaptations to 96-well plates. In this assay cyclophilins catalyze cis-to-trans isomerization of a proline peptide bond in a nitroanalide-coupled peptide substrate followed by cleavage of the trans-conformer peptide by α-chymotrypsin, release of the p-nitroaniline chromogen, and quantitation of p-nitroaniline by absorbance at 410 nm. All solutions were pre-equilibrated, and all assays were conducted at 4°C. Plates were preloaded with 5 µl peptide solution consisting of N-succinyl-alanine-alanine-proline-phenylalanine-p-nitroanilide (S7388; Sigma-Aldrich) and 400 mM lithium chloride (310468; Sigma-Aldrich) in anhydrous trifluoroethanol (T63002; Sigma-Aldrich). […] Cis-peptide represented 55% of the peptide isomers, based on initial reaction bursts, and therefore peptide concentration was corrected to 55% of input in subsequent calculations. […] Absorbance measurements with a BMG Polarstar Galaxy plate reader were begun immediately and made at 6-second intervals for 6 minutes. Reaction curves were represented by increases in optical density 410 nm as a function of reaction time. […]

[3] = system: NFAT promoter luciferase reporter, Jurkat cells; experiment: NFAT luciferase reporter assay in Jurkat cells; assay type: cell-based, human; settings: for IC50: 18 hours, read-out: NFAT–Luc IC50; for NFAT–Luc IC50 Fold Difference: CRV431 vs CsA
Method: (§2) The luciferase reporter assays employed Jurkat cells stably transfected with gene constructs consisting of a luciferase gene plus human nuclear factor of activated T cells (NFAT) or interleukin-2 (IL-2) promoter elements (J1621 and J1651; Promega). The NFAT construct contained a DNA binding site only for NFAT, whereas the IL-2 construct contained binding sites for NFAT, nuclear factor κ-light-chain-enhancer of activated B cells, and activating protein-1 transcription factors. Cells were cultured in 96-well plates at 100,000 cells/well in RPMI 1640 medium (11875-093; Thermo Fisher) supplemented with 5% FBS (12483020; Thermo Fisher). Cells were activated either by precoating high protein-binding plates with 3 µg/ml anti-CD3 (UCHT clone) and anti-CD28 (CD28.2 clone) (BioLegend LEAF antibodies) or by adding phorbol myristate acetate (PMA; P8139; Sigma-Aldrich) to 15 ng/ml and A23187 ionophore (C7522; Sigma-Aldrich) to 0.75 µM. […] Cells were harvested after 18 hours of incubation, and luciferase was quantified with Promega Bio-Glo reagent (G7940; Promega) and measurement with a luminescence plate reader. Data were normalized to DMSO controls (100% stimulation) and to wells without antibody or PMA plus A23187 stimulation.

[4] = system: Jurkat activation (NFAT and IL-2 luciferase reporters); experiment: Jurkat NFAT and IL-2 luciferase reporter assays taken together; assay type: cell-based, human
Method: as §2

[5] = system: human peripheral blood mononuclear cells; experiment: CFSE-PBMC proliferation; assay type: cell-based; settings: highest tested concentration of 10 µM, 3 days
Method: Peripheral blood mononuclear cells (PBMC) were isolated by Ficoll Paque Plus centrifugation (17144003; GE Life Sciences) of venous blood from a healthy human volunteer. Cells were incubated for 5 minutes with 5 µg/ml carboxyfluorescein diacetate succinimidyl ester (C1157; Thermo Fisher) to produce stable intracellular carboxyfluorescein succinimidyl ester (CFSE) labeling (CFSE-PBMC). […] Cells were collected after 3 days of culture incubation, and flow cytometry was used to measure the partitioning of CFSE into daughter cells arising from cell division (discrete cell populations with successively halved CFSE content). Daughter cells as a percentage of all CFSE-labeled cells were normalized to DMSO treatment (100% stimulation) and wells without CD3 antibody coating (nonstimulated).

MATE-1 = target: T3, MATE-1 (Homo sapiens, UniProt Q96FL8); experiment: Drug transporter inhibition, MATE-1; assay type: in vitro ADME; settings: MATE-1, HEK293
T3 construct: expressed in transfected cells
T3 sequence (Q96FL8 whole entry): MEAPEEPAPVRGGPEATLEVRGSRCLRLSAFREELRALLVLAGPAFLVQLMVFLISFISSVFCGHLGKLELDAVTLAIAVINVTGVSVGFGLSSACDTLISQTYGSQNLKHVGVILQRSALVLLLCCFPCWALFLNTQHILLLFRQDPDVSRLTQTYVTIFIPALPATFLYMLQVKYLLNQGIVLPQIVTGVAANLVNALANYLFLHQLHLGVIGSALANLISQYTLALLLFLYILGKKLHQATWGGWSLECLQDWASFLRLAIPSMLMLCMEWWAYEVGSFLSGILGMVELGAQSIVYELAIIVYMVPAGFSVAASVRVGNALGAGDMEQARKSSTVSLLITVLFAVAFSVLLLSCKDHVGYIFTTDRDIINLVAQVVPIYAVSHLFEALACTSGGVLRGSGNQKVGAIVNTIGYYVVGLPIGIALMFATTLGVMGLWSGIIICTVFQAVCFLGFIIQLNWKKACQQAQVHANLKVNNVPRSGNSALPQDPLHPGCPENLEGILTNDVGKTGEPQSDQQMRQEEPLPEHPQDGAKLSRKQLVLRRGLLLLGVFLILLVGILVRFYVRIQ
Method: Inhibition of all other transporters was assessed by measuring substrate accumulation in cells recombinantly expressing the transporter. Known inhibitors of each transporter were used as positive controls for the assays. […] Specific, ATP-dependent uptake was determined by subtracting uptake in negative control vesicles and cells not expressing the transporters, and secondly by subtracting uptake in the absence of ATP in the assays. Specific, ATP-dependent uptake was plotted as a function of CRV431 concentrations and fitted to nonlinear regressions to obtain IC50 values.

[6] = CRV431 concentrations in blood and liver, mice; assay type: in vivo, mouse; settings: for Liver:Blood [CRV431] Ratio: Mouse
Text: (§3) Male and female Sprague–Dawley rats and male C57BL/6 mice from the carbon tetrachloride and NASH studies were used to evaluate CRV431 pharmacokinetics and distribution. […] Terminal whole blood and livers were collected and frozen until drug extraction. Liver samples were homogenized in PBS or 1% formic acid (0.1 g–0.4 g liver sample per ml solvent) with bead-based homogenizers (TissueLyser or Beadruptor). […] Liver CRV431 concentrations were normalized to the masses of the liver samples.

[7] = CRV431 concentrations in blood and liver, rats; assay type: in vivo; settings: Rat
Text: as §3

BSEP [8] = target: T4, BSEP (Homo sapiens, UniProt O95342)
T4 sequence (O95342 whole entry): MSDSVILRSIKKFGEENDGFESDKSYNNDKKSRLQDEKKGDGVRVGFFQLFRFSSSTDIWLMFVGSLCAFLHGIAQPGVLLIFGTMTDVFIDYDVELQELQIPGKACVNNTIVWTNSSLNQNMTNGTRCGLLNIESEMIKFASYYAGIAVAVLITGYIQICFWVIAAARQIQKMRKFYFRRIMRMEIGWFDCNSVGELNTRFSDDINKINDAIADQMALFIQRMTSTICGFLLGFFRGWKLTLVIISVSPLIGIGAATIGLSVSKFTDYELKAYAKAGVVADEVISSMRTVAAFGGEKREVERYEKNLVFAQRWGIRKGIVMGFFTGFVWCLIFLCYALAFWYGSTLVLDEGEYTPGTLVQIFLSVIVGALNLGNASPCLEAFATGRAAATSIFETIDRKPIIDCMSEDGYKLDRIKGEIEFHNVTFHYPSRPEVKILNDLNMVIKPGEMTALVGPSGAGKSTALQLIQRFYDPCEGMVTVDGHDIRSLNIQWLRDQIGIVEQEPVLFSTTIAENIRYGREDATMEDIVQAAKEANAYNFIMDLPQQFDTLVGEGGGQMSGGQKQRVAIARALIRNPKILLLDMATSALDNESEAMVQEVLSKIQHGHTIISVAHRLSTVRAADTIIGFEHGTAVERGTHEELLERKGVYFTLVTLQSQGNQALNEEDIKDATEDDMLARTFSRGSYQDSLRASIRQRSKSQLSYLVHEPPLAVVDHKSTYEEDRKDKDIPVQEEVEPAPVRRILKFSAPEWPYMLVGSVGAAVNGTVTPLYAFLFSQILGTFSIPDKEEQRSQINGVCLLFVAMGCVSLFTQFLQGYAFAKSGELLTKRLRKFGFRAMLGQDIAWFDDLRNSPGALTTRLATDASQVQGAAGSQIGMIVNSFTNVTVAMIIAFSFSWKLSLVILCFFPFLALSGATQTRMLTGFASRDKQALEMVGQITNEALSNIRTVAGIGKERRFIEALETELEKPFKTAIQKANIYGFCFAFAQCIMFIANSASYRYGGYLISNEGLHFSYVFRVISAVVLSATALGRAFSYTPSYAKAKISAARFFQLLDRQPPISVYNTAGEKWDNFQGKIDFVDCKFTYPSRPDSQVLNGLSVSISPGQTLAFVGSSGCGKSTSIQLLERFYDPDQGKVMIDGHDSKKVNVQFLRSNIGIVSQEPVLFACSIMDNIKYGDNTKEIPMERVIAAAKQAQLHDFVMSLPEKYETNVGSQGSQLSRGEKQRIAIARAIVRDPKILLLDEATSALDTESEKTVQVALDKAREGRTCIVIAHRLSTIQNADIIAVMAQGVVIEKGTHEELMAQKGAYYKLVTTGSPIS
Method: (§4) Bile salt export pump (BSEP) and multidrug resistance protein (MRP)1 inhibition was assessed by measuring substrate accumulation in membrane vesicles prepared from insect Sf9 cells and recombinantly expressing BSEP and MRP2 (Genomembrane). Inhibition of all other transporters was assessed by measuring substrate accumulation in cells recombinantly expressing the transporter. Known inhibitors of each transporter were used as positive controls for the assays. […] Specific, ATP-dependent uptake was determined by subtracting uptake in negative control vesicles and cells not expressing the transporters, and secondly by subtracting uptake in the absence of ATP in the assays. Specific, ATP-dependent uptake was plotted as a function of CRV431 concentrations and fitted to nonlinear regressions to obtain IC50 values.

OATP1B3 = OATP1B3 (Homo sapiens, UniProt Q9NPD5)
Chain of OATP1B3 (Q9NPD5 whole entry): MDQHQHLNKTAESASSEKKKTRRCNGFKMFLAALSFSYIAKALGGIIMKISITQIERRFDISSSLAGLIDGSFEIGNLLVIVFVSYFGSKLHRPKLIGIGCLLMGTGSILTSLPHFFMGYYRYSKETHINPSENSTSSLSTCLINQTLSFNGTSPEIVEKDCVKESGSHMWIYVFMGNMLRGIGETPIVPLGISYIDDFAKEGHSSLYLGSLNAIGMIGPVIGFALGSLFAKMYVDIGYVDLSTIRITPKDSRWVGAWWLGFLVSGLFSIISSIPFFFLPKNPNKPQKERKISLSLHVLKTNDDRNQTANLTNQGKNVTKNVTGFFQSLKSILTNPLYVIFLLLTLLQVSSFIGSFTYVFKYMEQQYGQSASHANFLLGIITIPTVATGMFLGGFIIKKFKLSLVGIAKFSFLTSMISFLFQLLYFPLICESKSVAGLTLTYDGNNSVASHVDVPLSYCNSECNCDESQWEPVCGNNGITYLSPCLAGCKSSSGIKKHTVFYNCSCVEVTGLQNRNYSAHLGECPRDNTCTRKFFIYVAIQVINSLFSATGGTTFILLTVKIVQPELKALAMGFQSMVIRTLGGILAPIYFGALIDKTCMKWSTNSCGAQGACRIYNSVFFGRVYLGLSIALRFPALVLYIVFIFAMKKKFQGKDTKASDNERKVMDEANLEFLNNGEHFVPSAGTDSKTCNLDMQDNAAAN
Method: Briefly, PGP and breast cancer resistance protein inhibition was assessed by measuring the bidirectional transport of substrates across cell monolayers in transwell culture plates. Efflux ratios were represented as (apical-to-basal flux)/(basal-to-apical flux), and efflux ratios were plotted relative to CRV431 concentration to derive IC50 values. Bile salt export pump (BSEP) and multidrug resistance protein (MRP)1 inhibition was assessed by measuring substrate accumulation in membrane vesicles prepared from insect Sf9 cells and recombinantly expressing BSEP and MRP2 (Genomembrane). Inhibition of all other transporters was assessed by measuring substrate accumulation in cells recombinantly expressing the transporter. Known inhibitors of each transporter were used as positive controls for the assays. […] Specific, ATP-dependent uptake was determined by subtracting uptake in negative control vesicles and cells not expressing the transporters, and secondly by subtracting uptake in the absence of ATP in the assays. Specific, ATP-dependent uptake was plotted as a function of CRV431 concentrations and fitted to nonlinear regressions to obtain IC50 values.

BSEP [9] = target: T4, BSEP; experiment: Drug transporter inhibition, BSEP; settings: Vesicles
Method: as §4

[10] = Single oral dose pharmacokinetics in rats; settings: single oral dose 10 mg/kg
Text: Male and female Sprague–Dawley rats and male C57BL/6 mice from the carbon tetrachloride and NASH studies were used to evaluate CRV431 pharmacokinetics and distribution. […] Terminal whole blood and livers were collected and frozen until drug extraction. Liver samples were homogenized in PBS or 1% formic acid (0.1 g–0.4 g liver sample per ml solvent) with bead-based homogenizers (TissueLyser or Beadruptor). […] Sample and standard compounds were extracted from blood and liver homogenates using a zinc sulfate/methanol precipitation method and quantified by liquid chromatography–electrospray ionization–mass spectrometry, as previously described ([Trepanier et al., 2018]). Liver CRV431 concentrations were normalized to the masses of the liver samples.
CRV431 pharmacokinetics in rats. […] Whole–blood concentrations of the two compounds were determined at the indicated time points. […] Means and S.D. shown.

[11] = CRV431 blood and liver exposures across mouse and rat studies; settings: daily oral dosing, mice and rats
Text: as §3

[12] = mouse, in vivo, po, 50 mg/kg/day

SMILES: CC[C@@H]1NC(=O)[C@H]([C@H](O)[C@H](C)CCCCCCNC(C)=O)N(C)C(=O)[C@H](C(C)C)N(C)C(=O)[C@H](CC(C)C)N(C)C(=O)[C@H](CC(C)C)N(C)C(=O)[C@@H](C)NC(=O)[C@H](C)NC(=O)[C@H](CC(C)C)N(C)C(=O)[C@H](C(C)C)NC(=O)[C@H](CC(C)C)N(C)C(=O)[C@@H](C)N(C)C1=O [CRV431] (cyclo(A[dA][NMeL][NMeL][NMeV][NMeThr(4R-Me,4-(CH2)6NHAc)][Abu][dNMeA][NMeL]V[NMeL]))
- IC50 (recombinant Cyp D (PPIF)): 0.0028 µM
- IC50 Fold Difference (recombinant Cyp D (PPIF); CsA IC50 vs CRV431 IC50, PPIF): 3.6
- IC50 Fold Difference ([1]; CsA IC50 vs CRV431 IC50, PPIG): 3.8
- IC50 ([1]; PPIG (Cyp G), one peptide substrate concentration): 0.0073 µM
- IC50 ([2]; range over Cyp A, G, read-out: IC50 values, all cyclophilin isoforms): 0.0025 to 0.0073 µM
- IC50 ([2]; range over isoforms A, G (abstract), read-out: Inhibitory constant or IC50 values): 0.001 to 0.007 µM
- IC50 ([3]; CD3 + CD28 antibodies stimulation): 0.292 µM
- NFAT–Luc IC50 Fold Difference ([3]; CD3 + CD28 antibodies): 65.4
- NFAT–Luc IC50 Fold Difference ([3]; PMA + A23187): 60.2
- IC50 ([3]; PMA + A23187 stimulation): 0.205 µM
- times less potent than CsA on Jurkat–NFAT cells ([3]; ratio of CRV431 and CsA IC50): ~63 times
- suppression of Jurkat activation ([4]; CRV431 tested up to 20 µM): not able to completely suppress activation
- immunosuppression potency relative to CsA levels ([4]; from the multiple in vitro immunosuppression assays): ≤ 3%
- IC50 ([4]; range over both reporter lines and both stimulations, nonlinear regression, read-out: IC50 values, Jurkat activation): 0.205 to 0.311 µM
- IC50 ([4]; read-out: estimates of 50% inhibition derived directly from the graphs, range over Jurkat reporter assays): 0.34 to 0.5 µM
- inhibition of proliferation [5]: 40%
- CRV431 Inhibitory Potency vs. CsA (MATE-1): Same (no inhibition)
- Liver:Blood [CRV431] Ratio ([6]; CCl4, 50 mg/kg per day oral, day 42, 4 hours post-dose): 15.4 ± 10.4
- Liver:Blood [CRV431] Ratio ([6]; NASH, 50 mg/kg per day oral, day 189, 3 hours post-dose): 11.9 ± 8.5
- peak blood levels at which CRV431 efficacy occurred in mice ([6]; mouse, in vivo): 1.2 to 1.4 µg/mL
- Blood [6, 12]: 1.4 ± 1.5 µg/mL
- Liver [6, 12]: 11.6 ± 9.0 µg/g
- Liver:Blood [CRV431] Ratio ([7]; 30 mg/kg per day oral, day 7, 12 hours post-dose): 6.6 ± 1.1
- Liver:Blood [CRV431] Ratio ([7]; 30 mg/kg per day oral, day 7, 24 hours post-dose): 4.8 ± 1.1
- Liver:Blood [CRV431] Ratio ([7]; 250 mg/kg per day oral, day 7, 12 hours post-dose): 7.6 ± 1.8
- Liver:Blood [CRV431] Ratio ([7]; 250 mg/kg per day oral, day 7, 24 hours post-dose): 5.3 ± 0.6
- IC50 (BSEP [8]): 1.42 µM
- IC50 (OATP1B3): 0.6 µM
- CRV431 Inhibitory Potency vs. CsA (BSEP [9]): 3.4× less
- clearance fold difference, CRV431 vs CsA [10]: 3.5 fold
- fold higher levels in liver than in the blood [11]: 5- to 15 fold

— PMC6815936, “A Pan-Cyclophilin Inhibitor, CRV431, Decreases Fibrosis and Tumor Development in Chronic Liver Disease Models” (The Journal of Pharmacology and Experimental Therapeutics, 2019)
